This assay addresses T1, human KSP motor domain (Homo sapiens, UniProt P52732).
T1 construct: were used to amplify the motor domain and the neck linker region; made in house; host or cells: E. coli BL21 (DE3), pRSETa
T1 sequence (P52732 18-359 limits assumed): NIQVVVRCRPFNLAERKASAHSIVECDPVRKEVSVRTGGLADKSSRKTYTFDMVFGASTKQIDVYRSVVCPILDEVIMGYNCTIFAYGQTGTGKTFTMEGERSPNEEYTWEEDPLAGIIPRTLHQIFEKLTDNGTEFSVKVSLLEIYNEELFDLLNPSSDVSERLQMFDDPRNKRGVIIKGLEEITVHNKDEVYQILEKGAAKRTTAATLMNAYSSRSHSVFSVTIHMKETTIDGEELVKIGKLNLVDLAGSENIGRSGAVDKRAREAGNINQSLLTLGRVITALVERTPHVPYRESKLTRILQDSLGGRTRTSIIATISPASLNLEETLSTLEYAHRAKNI
The experiment in a line: Kinesin ATPase In Vitro Assay. The assay is classed as biochemical. The note with it: KSP(367H) motor domain with microtubules, 1 mM ATP, 23° C.; free phosphate by quinaldine red/ammonium molybdate. The source says:
I. Kinesin ATPase In Vitro Assay
Cloning and Expression of Human Poly-histidine Tagged KSP Motor Domain (KSP(367H))
Plasmids for the expression of the human KSP motor domain construct were cloned by PCR using a pBluescript full length human KSP construct (Blangy et al., Cell, vol. 83, pp 1159-1169, 1995) as a template. The N-terminal primer 5′-[…] (SEQ.ID.NO.:) and the C-terminal primer 5′-[…] […] (SEQ.ID.NO.:) were used to amplify the motor domain and the neck linker region. The PCR products were digested with AseI and XhoI, ligated into the NdeIl/XhoI digestion product of pRSETa (Invitrogen) and transformed into E. coli BL21 (DE3).
Cells were grown at 37° C. to an OD600 of 0.5. After cooling the culture to room temperature expression of KSP was induced with 100 μM IPTG and incubation was continued overnight. Cells were pelleted by centrifugation and washed once with ice-cold PBS. Pellets were flash-frozen and stored −80° C.
Cell pellets were thawed on ice and resuspended in lysis buffer (50 mM K-HEPES, pH 8.0, 250 mM KCl, 0.1% Tween, 10 mM imidazole, 0.5 mM Mg-ATP, 1 mM PMSF, 2 mM benzimidine, 1× complete protease inhibitor cocktail (Roche)). Cell suspensions were incubated with 1 mg/ml lysozyme and 5 mM β-mercaptoethanol on ice for 10 minutes, followed by sonication (3×30 sec). All subsequent procedures were performed at 4° C. Lysates were centrifuged at 40,000×g for 40 minutes. Supernatants were diluted and loaded onto an SP Sepharose column (Pharmacia, 5 ml cartridge) in buffer A (50 mM K-HEPES, pH 6.8, 1 mM MgCl2, 1 mM EGTA, 10 μM Mg-ATP, 1 mM DTT) and eluted with a 0 to 750 mM KCl gradient in buffer A. Fractions containing KSP were pooled and incubated with Ni-NTA resin (Qiagen) for one hour. The resin was washed three times with buffer B (Lysis buffer minus PMSF and protease inhibitor cocktail), followed by three 15-minute incubations and washes with buffer B. Finally, the resin was incubated and washed for 15 minutes three times with buffer C (same as buffer B except for pH 6.0) and poured into a column. KSP was eluted with elution buffer (identical to buffer B except for 150 mM KCl and 250 mM imidazole). KSP-containing fractions were pooled, made 10% in sucrose, and stored at −80° C.
Microtubules are prepared from tubulin isolated from bovine brain. Purified tubulin (>97% MAP-free) at 1 mg/ml is polymerized at 37° C. in the presence of 10 μM paclitaxel, 1 mM DTT, 1 mM GTP in BRB80 buffer (80 mM K-PIPES, 1 mM EGTA, 1 mM MgCl2 at pH 6.8). The resulting microtubules are separated from non-polymerized tubulin by ultracentrifugation and removal of the supernatant. The pellet, containing the microtubules, is gently resuspended in 10 μM paclitaxel, 1 mM DTT, 50 μg/ml ampicillin, and 5 μg/ml chloramphenicol in BRB80.
The kinesin motor domain is incubated with microtubules, 1 mM ATP (1:1 MgCl2: Na-ATP), and compound at 23° C. in buffer containing 80 mM K-HEPES (pH 7.0), 1 mM EGTA, 1 mM DTT, 1 mM MgCl2, and 50 mM KCl. […] Free phosphate from the ATP hydrolysis reaction is measured via a quinaldine red/ammonium molybdate assay by adding 150 μl of quench C buffer containing a 2:1 ratio of quench A:quench B. Quench A contains 0.1 mg/ml quinaldine red and 0.14% polyvinyl alcohol; quench B contains 12.3 mM ammonium molybdate tetrahydrate in 1.15 M sulfuric acid. The reaction is incubated for 10 minutes at 23° C., and the absorbance of the phospho-molybdate complex is measured at 540 nm.

Structures are written as SMILES.

Turning to `CCC(c1nc2ccsc2c(=O)n1Cc1ccccc1)N(CCN(C)C)C(=O)c1ccc(Br)cc1` (centres unmarked) [Compound 1-8, N-[1-(3-Benzyl-4-oxo-3,4-dihydrothieno[3,2-d]pyrimidin-2-yl)propyl]-4-bromo-N-[2-(dimethylamino)ethyl]benzamide], the IC50 (usually the concentration that inhibits the measured activity by half) was no more than 50 µM.

`CCC(c1nc2sc(Br)c(Br)c2c(=O)n1Cc1ccccc1)N(CCN(C)C)C(=O)c1ccc(Br)cc1` (centres unmarked) [Compound 2-9, N-[1-(3-benzyl-5,6-dibromo-4-oxo-3,4-dihydrothieno[2,3-d]pyrimidin-2-yl)propyl]-4-bromo-N-[2-(dimethylamino)ethyl]benzamide] displayed an IC50 of no more than 50 µM.

In turn, `CCC(c1nc2sc(Br)cc2c(=O)n1Cc1ccccc1)N(CCN(C)C)C(=O)c1ccc(Br)cc1` (centres unmarked) [Compound 2-10, N-[1-(3-benzyl-6-bromo-4-oxo-3,4-dihydrothieno[2,3-d]pyrimidin-2-yl)propyl]-4-bromo-N-[2-(dimethylamino)ethyl]benzamide] returned an IC50 of no more than 50 µM.

Take `CCC(c1nc2sccc2c(=O)n1Cc1ccccc1)N(CCN(C)C)C(=O)c1ccc(Br)cc1` (centres unmarked) [Compound 3-2, N-[1-(3-benzyl-4-oxo-3,4-dihydrothieno[2,3-d]pyrimidin-2-yl)propyl]-4-bromo-N-[2-(dimethylamino)ethyl]benzamide]: the IC50 was no more than 50 µM.

As to `CCC(c1nc2sccc2c(=O)n1Cc1ccccc1)N(CCN(C)C)Cc1ccc(Br)cc1` (centres unmarked) [Compound 4-1, 3-benzyl-2-(1-{(4-bromobenzyl)[2-(dimethylamino)ethyl]amino}propyl)thieno[2,3-d]pyrimidin-4(3H)-one], the 50% inhibitory concentration (IC50) was no more than 50 µM.

(Values after patent publication US7378411B2, “Substituted thienopyrimidinones as a mitotic kinesin inhibitor” (Merck & Co., Inc., priority 2001, dated 2008).)
